Data from patent US6235736A, “3-anilino-2-cycloalkenone derivatives” (Nikken Chemicals Co., Ltd., priority 1997, dated 2001).

How the values were obtained:
[1] = tested on: TPA induced ear edema in mouse; assay: TPA induced mouse ear edema assay; format: in vivo, mouse (male ICR); details: 0.1 mg applied to right ear immediately after TPA; 6 hour
Description: Male ICR mice, 5 week old, were divided into groups of seven to eight. 2 μg of TPA (phorbor 12-ministate; Sigma Co.) in 20 μl acetone was applied to the inner and outer surface of right ear of each mouse to cause a reaction. 0.1 mg of compound was dissolved in 20 μl of a tetrahydrofuran-methanol mixture (mixture ratio 1:1) and the solution (20 μl) applied to the right ear immediately after TPA treatment. After 6 hour, the animals were sacrificed and right ear was punched out (.phi. […]) and weighed. The effect of comppund.was calculated as % inhibition as follows: [formula]

Type IV PDE = assay: PDE IV inhibitory activity (isozyme partially purified from rat neutrophils, 3H-cAMP substrate); format: biochemical; details: rat neutrophil PDE IV, 30° C., 30 minutes, read-out: PDE IV inhibiting action IC50
Description: Type I, III, IV, and V PDE isozymes were prepared to study the PDE inhibitory activities of and selectivities with the compound of the invention [Trends Pharmacol Sci., 12, 19-27 (1991)]. Type I PDE was purchased from Sigma Corp. Type III, IV, and V PDE isozymes were partially purified from platelets (Type III and V) or neutrophils (Type IV) collected from rats. Each enzyme source was homogenized in a buffer (pH 6.5) containing 20 mM bisTris, 2 mM EDTA (i.e., ethlenediamine tetraacetate), 2-mercaptoethanol, 0.001 mM pepstatin and 0.01 mM leupeptin and was centrifuged at 30000×G for 30 minutes to obtain a supernatant, which was applied to an ion exchange column (Q-sepharose first flow, Pharmacia Corp.) and was eluted with 0 to 1M sodium acetate. Partially purified isozymes were identified by observing the inhibitory effects of conventional inhibitors.
Each PDE isozyme and the test compound dissolved in DMSO (i.e., dimethylsulfoxide) were added to 50 mM Tris--HCI buffer containing 5 mM magnesium chloride. ^3 H-cAMP (for type III and IV PDE) or ^3 H-cGMP (for type I and V PDE) were added as substrates and were reacted at 30° C. for 30 minutes. The reaction was terminated by placing the test tube in boiling water of 100° C. for 5 minutes. The nucleotides formed by PDE were broken down to ^3 H-adenosine or ^3 H-guanosine by 5'-nucleotidase. The substrate and reaction product were separated through an ion-exchange column (i.e., QAE sephadex, Pharmacia Corp.)
The eluted ^3 -H-nucleoside was measured for its radioactivity by a liquid scintillation counter. The inhibitory activities of the compound of the present invention are shown by the IC50 value (M). Further, the inhibitory activities of the test samples against type I, III, and V PDE are 1/10 or less than that against Type IV PDE.

| Compound | IC50 (Type IV PDE) [nM] | % Inhibition of ear edema [1] [%] |
| --- | --- | --- |
| COc1ccc(NC2=CC(=O)CCC2)cc1OC1CCCC1 [Compound No. 2, 3-(3-cyclopentyloxy-4-methoxyanilino)-2-cyclohexen-1-one] | 3700 | 65.0 |
| COc1ccc(NC2=C(Br)C(=O)CC2)cc1OC1CCCC1 [Compound No. 7, 2-bromo-3-(3-cyclopentyloxy-4-methoxyanilino)-2-cyclopenten-1-one] | 280 | 55.8 |
| COc1ccc(NC2=C(C)C(=O)CC2)cc1OCCc1ccccc1 [Compound No. 12, 3-(4-methoxy-3-phenethyloxyanilino)-2-methyl-2-cyclopenten-1-one] | 710 | 52.5 |
| COc1ccc(NC2=CC(=O)CC2)cc1OC1CCCCC1 [Compound No. 13, 3-(3-cyclohexyloxy-4-methoxyanilino)-2-cyclopenten-1-one] | 7400 | 51.8 |
| COc1ccc(NC2=C(C)C(=O)CC2)cc1OCC1CC1 [Compound No. 16, 3-(3-cyclopropylmethoxy-4-methoxyanilino)-2-methyl-2-cyclogenten-1-one] | 1000 | 72.1 |
| CCCCOc1cc(NC2=CC(=O)CC2)ccc1OC [Compound No. 17, 3-(3-butoxy-4-methoxyanilino)-2-cyclopenten-1-one] | 14000 | 57.1 |
| COc1ccc(NC2=CC(=O)CCC2)cc1OC1Cc2ccccc2C1 [Compound No. 19, 3-[3-(2-indanyloxy)-4-methoxyanilino]-2-cyclohexen-1-one] | 1800 | 76.3 |
| COc1ccc(N(C)C2=CC(=O)CC2)cc1OC1CCCC1 [Compound No. 26, 3-(3-cyclopentyloxy-4-methoxy-N-methylanilino)-2-cyclopenten-1-one] | 800 | 82.0 |
| COc1ccc(N(C)C2=CC(=O)CCC2)cc1OC1CCCC1 [Compound No. 27, 3-(3-cyclopentyloxy-4-methoxy-N-methylanilino)-2-cyclohexen-1-one] | 1900 | 86.4 |
| COc1ccc(N(Cc2ccncc2)C2=CC(=O)CC2)cc1OC1CCCC1 [Compound No. 28, 3-[3-cyclopentyloxy-4-methoxy-N-(4-pyridylmethyl)anilino]-2-cyclopenten-1-one] | 4300 | 71.5 |
| COc1ccc(N(Cc2ccccc2)C2=CC(=O)CC2)cc1OC1CCCC1 [Compound No. 30, 3-(N-benzyl-3-cyclopentyloxy-4-methoxyanilino)-2-cyclopenten-1-one] | 2600 | 78.4 |
| CCC1=C(Nc2ccc(OC)c(OC3CCCC3)c2)CCC1=O [Compound No. 31, 3-(3-cyclopentyloxy-4-methoxyanilino)-2-ethyl-2-cyclopenten-1-one] | 220 | 73.4 |
| COc1ccc(NC2=C(Cc3ccccc3)C(=O)CC2)cc1OC1CCCC1 [Compound No. 33, 2-benzyl-3-(3-cyclopentyloxy-4-methoxyanilino)-2-cyclopenten-1-one] | 400 | 81.7 |
| COc1ccc(NC2=C(C)C(=O)CC2)cc1OCCC1Cc2ccccc2C1 [Compound No. 35, 3-[3-[2-(2-indanyl)ethoxy]-4-methoxyanilino]-2-methyl-2-cyclopenten-1-one] | 290 | 52.5 |
| COc1ccc(NC2=C(C)C(=O)CC2)cc1OC1CCOC1 (stereo not shown) [Compound No. 37, 3-[4-methoxy-3-(3-2,3,4,5-tetrahydrofuranyloxy)anilino]-2-methyl-2-cyclopenten-1-one] | 1200 | 51.8 |

Further lines, with some results ahead:

| IC50 (Type IV PDE) [nM] | Compound | % Inhibition of ear edema [1] [%] |
| --- | --- | --- |
| 1600 | COc1ccc(NC2=CC(=O)CCC2)cc1O[C@@H]1C[C@H]2CC[C@@H]1C2 (relative stereo) [Compound No. 83, 3-[3-[rel(1R,2R,4S)-bicyclo[2.2. 1]hept-2-yloxy]-4-methoxyanilino]-2-cyclohexen-1-one] | 70.5 |
| 1400 | COc1ccc(N(Cc2ccccc2)C2=CC(=O)CCC2)cc1O[C@@H]1C[C@H]2CC[C@@H]1C2 (relative stereo) [Compound No. 84, 3-[N-benzyl-3-[rel(1R,2R,4S)-bicyclo[2.2. 1]hept-2-yloxy]-4-methoxyanilino]-2-cyclohexen-1-one] | 71.8 |
| 82 | COc1ccc(NC2=C(C)C(=O)CCC2)cc1OC1Cc2ccccc2C1 [Compound No. 48, 3-[3-(2-indanyloxy)-4-methoxyanilino]-2-methyl-2-cyclohexen-1-one] | 53.8 |
| 2300 | COc1ccc(NC2=CC(=O)CC2)cc1OCC1(c2ccccc2)CC1 [Compound No. 49, 3-[4-methoxy-3-[(1-phenylcyclopropyl)methoxy]anilino]-2-cyclopenten-1-one] | 54.3 |
| 620 | COc1ccc(NC2=C(C)C(=O)CC2)cc1OCC1(c2ccccc2)CC1 [Compound No. 50, 3-[4-methoxy-3-[(1-phenylcyclopropyl)methoxy]anilino]-2-methyl-2-cyclopenten-1-one] | 62.6 |
| 220 | COc1ccc(NC2=C(C)C(=O)CCC2)cc1OCCC1Cc2ccccc2C1 [Compound No. 53, 3-[3-[2-(2-indanyl)ethoxy]-4-methoxyanilino]-2-methyl-2-cyclohexen-1-one] | 55.9 |
| 2000 | COc1ccc(NC2=C(C)C(=O)CCC2)cc1OC1CCCCC1 [Compound No. 55, 3-(3-cyclohexyloxy-4-methoxyanilino)-2-methyl-2-cyclohexen-1-one] | 70.8 |
| 5500 | COc1ccc(N(Cc2ccccc2)C2=CC(=O)CC2)cc1OC1CCCCC1 [Compound No. 56, 3-(N-benzyl-3-cyclohexyloxy-4-methoxyanilino)-2-cyclopenten-1-one] | 86.1 |
| 1900 | COc1ccc(N(Cc2ccc3ccccc3c2)C2=CC(=O)CC2)cc1OC1CCCCC1 [Compound No. 57, 3-[3-cyclohexyloxy-4-methoxy-N-(2-naphthylmethyl)anilino]-2-cyclopenten-1-one] | 89.7 |
| 530 | COc1ccc(N(Cc2ccc3ccccc3n2)C2=CC(=O)CC2)cc1OC1CCCC1 [Compound No. 58, 3-[3-cyclopentyloxy-4-methoxy-N-(2-quinolylemethyl)anilino]-2-cyclopenten-1-one] | 58.7 |
| 7400 | CCCN(C1=CC(=O)CC1)c1ccc(OC)c(OC2CCCC2)c1 [Compound No. 59, 3-(3-cyclopentyloxy-4-methoxy-N-propylanilino)-2-cyclopenten-1-one] | 60.1 |
| 44000 | COc1ccc(N(C2=CC(=O)CC2)C2CCCC2)cc1OC1CCCC1 [Compound No. 60, 3-(N-cyclopentyl-3-cyclopentyloxy-4-methoxyanilino)-2-cyclopenten-1-one] | 78.5 |
| 3200 | COc1ccc(N(Cc2ccccn2)C2=CC(=O)CC2)cc1OC1CCCC1 [Compound No. 61, 3-[3-cyclopentyloxy-4-methoxy-N-(2-pyridylmethyl)anilino]-2-cyclopenten-1-one] | 66.2 |
| 1200 | COc1ccc(N(Cc2ccc3ccccc3c2)C2=CC(=O)CC2)cc1OC1CCCC1 [Compound No. 62, 3-[3-cyclopentyloxy-4-methoxy-N-(2-naphthylmethyl)anilino]-2-cyclopenten-1-one] | 78.8 |
| 5300 | COc1ccc(N(Cc2cccnc2)C2=CC(=O)CC2)cc1OC1CCCC1 [Compound No. 63, 3-[3-cyclopentyloxy-4-methoxy-N-(3-pyridylmethyl)anilino]2-cyclopenten-1-one] | 75.4 |
| 4400 | CCCCCN(C1=CC(=O)CC1)c1ccc(OC)c(OC2CCCC2)c1 [Compound No. 64, 3-(3-cyclopentyloxy-4-methoxy-N-pentylanilino)-2-cyclopenten-1-one] | 52.0 |
| 290 | COc1ccc(N(C)C2=CC(=O)CCC2)cc1OC1Cc2ccccc2C1 [Compound No. 65, 3-[3-(2-indanyloxy)-4-methoxy-N-methylanilino]-2-cyclohexen-1-one] | 52.5 |
